pEC50: −log10 of the molar value.

The experiment concerns the target T1, POsterior Segregation (Caenorhabditis elegans, UniProt G5EF15).
T1 sequence (G5EF15 whole entry): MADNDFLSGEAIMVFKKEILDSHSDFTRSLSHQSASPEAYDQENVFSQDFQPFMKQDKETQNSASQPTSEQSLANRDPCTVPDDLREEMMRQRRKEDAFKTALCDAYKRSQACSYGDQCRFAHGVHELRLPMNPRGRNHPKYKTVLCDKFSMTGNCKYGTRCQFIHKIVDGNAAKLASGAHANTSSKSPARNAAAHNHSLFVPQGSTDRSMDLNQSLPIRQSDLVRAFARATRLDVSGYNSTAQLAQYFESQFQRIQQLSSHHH
Kind of experiment: inhibitors of POS-1/mex-3 RNA binding, dose response, biochemical, fluorescence polarization (AID 1964). On the technique in general: In fluorescence polarisation assays a small probe gives low polarisation when free and higher when bound to something large.
As to `C[C@@H]1O[C@@H](O[C@@H]2[C@@H](O)[C@H](OCCc3ccc(O)c(O)c3)O[C@H](CO)[C@H]2OC(=O)/C=C/c2ccc(O)c(O)c2)[C@H](O)[C@H](O)[C@H]1O` [((2R,3R,4R,5R,6R)-6-(3,4-dihydroxyphenethoxy)-5-hydroxy-2-(hydroxymethyl)-4-((2S,3R,4R,5R,6S)-3,4,5-trihydroxy-6-methyltetrahydro-2H-pyran-2-yloxy)tetrahydro-2H-pyran-3-yl) 3-(3,4-dihydroxyphenyl)acrylate], the pEC50 was 4.69.

Compound `COc1ccc(C(=O)CC=Nc2ccc([N+](=O)[O-])cc2C)c(OC)c1` [(E)-1-(2,4-dimethoxyphenyl)-3-(2-methyl-4-nitro-anilino)prop-2-en-1-one] had a pEC50 of less than 3.52.

Regarding `COc1ccc(C(=O)CC=Nc2ccc([N+](=O)[O-])cc2C)cc1OC` [(E)-1-(3,4-dimethoxyphenyl)-3-(2-methyl-4-nitro-anilino)prop-2-en-1-one], the pEC50 is 4.26.

In turn, `O=C(CC=Nc1ccc([N+](=O)[O-])cc1)c1ccc(Br)cc1` [(E)-1-(4-bromophenyl)-3-(4-nitroanilino)-2-propen-1-one] had a negative-log EC50 (pEC50) of less than 3.52.

The compound `Cc1ccc(N=CCC(=O)c2sc(-c3ccccc3)nc2C)cc1` [(E)-1-(4-methyl-2-phenyl-1,3-thiazol-5-yl)-3-(4-toluidino)-2-propen-1-one] showed a pEC50 of 4.33.

On to `CC(=N)C(C#N)C(=O)CSc1ncnc2ccccc12` (stereo unspecified) [(E)-3-amino-2-(2-quinazolin-4-ylsulfanylacetyl)but-2-enenitrile], for which the pEC50 is less than 3.52.

The compound `O=CC(C=Nc1ccccn1)c1nc2cc(Cl)ccc2o1` (stereo unspecified) [(Z)-2-(5-chloranyl-1,3-benzoxazol-2-yl)-3-(pyridin-2-ylamino)prop-2-enal] gave a pEC50 of 4.17.

Regarding `COc1ccc(CCN2C(=O)NC(=O)C(=CNNC(=O)c3ccncc3)C2=O)cc1OC` [Isonicotinic acid N'-[1-[2-(3,4-dimethoxy-phenyl)-ethyl]-2,4,6-trioxo-tetrahydro-pyrimidin-(5E)-ylidenemethyl]-hydrazide], the negative-log EC50 (pEC50) is 3.82.

For the compound `CCCCN1C(=O)NC(=O)C(=CNNC(=O)c2ccncc2)C1=O` [Isonicotinic acid N'-[1-butyl-2,4,6-trioxo-tetrahydro-pyrimidin-(5E)-ylidenemethyl]-hydrazide], the pEC50 is less than 3.52.

`COc1cc(C2C3CN(C)CCC3=C(C#N)C(=N)C2(C#N)C#N)ccc1OC(C)C` (stereo unspecified) [MLS000034945] showed a pEC50 of less than 3.52.

For the compound `CC(=O)N1CCN(c2ccc(NC=C3C(=O)NC(=O)N(Cc4ccccc4)C3=O)cc2)CC1` [MLS000041641], the pEC50 was less than 3.52.

The compound `CC(=O)Nc1ccc(N=CCC(=O)c2ccc(C)o2)cc1` [MLS000089004] gave a pEC50 of less than 3.52.

Take `COc1ccc(CCN2C(=O)NC(=O)C(=CNc3ccc(NC(C)=O)cc3)C2=O)cc1OC` [MLS000332913]: the pEC50 is less than 3.52.

`O=C1CCCC2=Nc3cc(Cl)ccc3SC12` (stereo unspecified) [MLS000333002] had a negative logarithm of the EC50 (pEC50) of 4.74.

The compound `CCCCCCN1C(=O)C(=CNc2ccccc2N2CCOCC2)C(=O)NC1=S` [MLS000333666] had a pEC50 of less than 3.52.

In turn, `Cc1ccc(CN=Nc2ncnc3nc[nH]c23)cc1` [MLS000419179] gave a pEC50 of less than 3.52.

Compound `CCOc1ccc(N=C(C(=C(Cl)C(Cl)Cl)[N+](=O)[O-])n2cncn2)cc1` [MLS000519210] had a pEC50 of 4.33.

With `COc1cc(CN=Nc2ccc([N+](=O)[O-])cc2)ccc1OCC(=O)Nc1ccc(C)c(C)c1` [MLS000537060], the pEC50 is less than 3.52.

Compound `[H]/N=C1/OC23CCCCC2C(C#N)(C#N)C1(C#N)C(c1ccc(OC)cc1)O3` (stereo unspecified) [MLS000554241] showed a pEC50 of 4.90.

`Nc1c(-c2nc3ccccc3[nH]2)c(O)cn1-c1ccc(CC(=O)O)cc1` [MLS000565528] gave a pEC50 of 5.28.

Regarding `Cc1nnc(=O)[nH]c1N=NCC1C=CC(=O)C([N+](=O)[O-])=C1` (stereo unspecified) [MLS000585487], the pEC50 is 3.77.

Take `O=C(N[N-][CH+]c1cc([N+](=O)[O-])ccc1N1CCCC1)c1ccccn1` [MLS000684285]: the pEC50 is 3.83.

Regarding `Cc1cc(=O)n(-c2ccc(C(=O)O)c(N)c2)[nH]1` [MLS000690508], the negative-log EC50 (pEC50) is 4.07.

Compound `CC1=C(C#N)C(=O)N(C)C(=O)C1=CNNc1ccc(C)c(C)c1` [MLS000698328] gave a pEC50 of less than 3.52.

Turning to `CC1=C(C#N)C(=O)N(C)C(=O)C1=CNNc1ccc(F)cc1` [MLS000702698], the pEC50 was less than 3.52.

For the compound `O=C(c1ccccc1)[C@@H]1c2c(c(O)n(-c3ccc(F)cc3)c2O)C2CCCN21` (stereo partly specified) [MLS000769629], the negative-log EC50 (pEC50) is 4.42.

Compound `O=C(O)c1ccccc1N=NCc1c(Sc2nnnn2-c2ccccc2)nc2ccccn2c1=O` [MLS000775267] showed a pEC50 of less than 3.52.

As for `CCCCOC(=O)c1ccc(NN=C2C(=O)NC(=O)C(C#N)=C2C)cc1` [MLS000778379], the pEC50 is less than 3.52.

`COc1cc(C2C3=C(CC(C)(C)CC3=O)OC(=N)C2C#N)ccc1OCCN1CCOCC1` (stereo unspecified) [MLS000779948] had a pEC50 of less than 3.52.

The compound `C=c1c(C(=O)OC)c(O)c(=Cc2ccco2)n1-c1ccccc1` [MLS000780287] had a pEC50 of 4.00.

The compound `COc1ccc(C(C)N=Nc2nc3ccccc3nc2C)cc1OC` (stereo unspecified) [MLS001029936] had a pEC50 of 5.30.

The compound `CC1(C)c2[nH]c3ccccc3c2Cc2c(O)n(-c3ccc(F)cc3F)c(=O)n21` [MLS001065879] had a pEC50 of less than 3.52.

Turning to `O=C(/C=C/c1ccco1)NCC(=O)NNC1=c2ccccc2=NC1=O` [MLS001075666], the pEC50 was 4.88.

Regarding `O=C1N=C(O)C(C2=c3cc([N+](=O)[O-])ccc3=NC2=O)S1` (stereo unspecified) [MLS001163276], the pEC50 was 4.88.

Compound `N#CC1C(=N)OC2=C(C(=O)CCC2)C1c1cc2c(cc1Cl)OCO2` (stereo unspecified) [MLS001183950] showed a pEC50 of less than 3.52.

`Cc1cc(=O)[nH]c(N=NCc2ccc(O)c(O)c2)n1` [MLS001194906]: the pEC50 is 4.00.

`COc1ccc(OC)c(N2C(=O)C(=Cc3ccco3)C(=O)NC2=S)c1` [MLS001197216] had a pEC50 of 4.98.

`Cc1ccccc1NN=C1C(=O)N(C)c2ccccc21` [MLS001203477] showed a pEC50 of less than 3.52.

The compound `O=[N+]([O-])c1cc/c(=N\c2ccccc2O)c2no[nH]c1-2` [MLS001206694] gave a pEC50 of 4.61.

For the compound `COc1cc2c(cc1C1C3=C(CC(C)(C)CC3=O)OC(=N)C1C#N)OCO2` (stereo unspecified) [MLS001208406], the pEC50 is less than 3.52.

Take `O=C1C([N+](=O)[O-])=CC(Cl)=CC1/C=N/NC(=O)C(O)(c1ccccc1)c1ccccc1` (stereo unspecified) [N''''-[(E)-(3-chloro-5-nitro-6-oxocyclohexa-2,4-dien-1-ylidene)methyl]-2-hydroxy-2,2-diphenylacetohydrazide]: the pEC50 was less than 3.52.

For the compound `O=C(NN=Cc1c(O)n(-c2ccccc2)c(=S)[nH]c1=O)c1ccc(O)cc1` [N'-[(1Z)-(4,6-dioxo-1-phenyl-2-thioxohexahydropyrimidin-5-yl)methylene]-4-hydroxybenzohydrazide], the pEC50 was less than 3.52.

Compound `O=C(N/N=C/C1C=C(Cl)C=C([N+](=O)[O-])C1=O)c1ccc2c(c1)OCO2` (stereo unspecified) [N'-[(E)-(3-chloranyl-5-nitro-6-oxidanylidene-cyclohexa-2,4-dien-1-ylidene)methyl]-1,3-benzodioxole-5-carbohydrazide] gave a pEC50 of 3.90.

For the compound `O=C1NC(=O)N(CCc2ccc(F)cc2)C(=O)C1=CNNC(=O)c1ccccc1` [N'-[(E)-[1-[2-(4-fluorophenyl)ethyl]-2,4,6-trioxo-1,3-diazinan-5-ylidene]methyl]benzohydrazide], the negative logarithm of the EC50 (pEC50) is less than 3.52.

Consider `O=C1NC(=O)N(CCc2ccccc2)C(=O)C1=CNNC(=O)c1ccncc1` [N'-[(E)-[2,4,6-trioxo-1-(2-phenylethyl)-1,3-diazinan-5-ylidene]methyl]-4-pyridinecarbohydrazide], for which the pEC50 is less than 3.52.

Turning to `C/N=c1\ccc2nc3ccccc3n(C)c-2c1` [N,10-dimethyl-2-phenazin-10-iumamine;perchlorate], the negative-log EC50 (pEC50) is 4.69.

The compound `O=[N+]([O-])c1ccc(/N=N/c2ncc[nH]2)cc1` [N-(imidazol-2-ylideneamino)-4-nitroaniline] showed a pEC50 of 4.16.

`COc1ccc(N=C(C(=C(Cl)C(Cl)Cl)[N+](=O)[O-])n2nnc3ccccc32)cc1` [N-[(1E)-1-(1-benzotriazolyl)-3,4,4-trichloro-2-nitrobuta-1,3-dienyl]-4-methoxyaniline] gave a negative-log EC50 (pEC50) of 4.05.

Take `COc1cccc(C2C3=C(CC(c4ccco4)CC3=O)OC(=N)C2C#N)c1OCc1ccc(F)cc1` (stereo unspecified) [SMR000021029]: the pEC50 is less than 3.52.

In turn, `CCN(CC)c1ccc(C=NC(C#N)C(=N)C#N)cc1` (stereo unspecified) [SMR000023871] had a pEC50 of 3.55.

Regarding `COc1ccc(C2CC(c3ccc(Br)s3)=Nc3ncnn32)cc1OC` (stereo unspecified) [SMR000032927], the pEC50 was 5.11.

Compound `Cc1ccc(C2C3CN(C(C)C)CCC3=C(C#N)C(=N)C2(C#N)C#N)cc1` (stereo unspecified) [SMR000034220] had a pEC50 of 5.15.

`Cc1cc(O)c(C(C)C)cc1Nc1csc(=O)[nH]1` [SMR000034713] had a pEC50 of 4.41.

For `CC1=NC(c2ccccc2)C(C#N)(C#N)C(C#N)(C#N)C1` (stereo unspecified) [SMR000037705], the pEC50 was 5.50.

In turn, `COc1cc(OC)c(C2C3=C(CC(C)(C)CC3=O)OC(=N)C2C#N)cc1OC` (stereo unspecified) [SMR000054706] showed a pEC50 of less than 3.52.

`C=c1[nH]n(-c2cccc(C(=O)O)c2)c(=O)c1=CC=Cc1ccco1` [SMR000113614] had a pEC50 of 4.70.

Turning to `COc1ccc(C=C2CCCC(C(=O)C(F)(F)F)C2=O)cc1` (stereo unspecified) [SMR000142699], the pEC50 is 4.44.

In turn, `Oc1ccc2ccccc2c1CN=Nc1nnc(-c2ncc[nH]2)c2ccccc12` [SMR000151639] showed a pEC50 of 4.31.

With `CN1CCC2(CC1)C(C#N)C(=N)NC(=S)C2C#N` (stereo unspecified) [SMR000211480], the pEC50 was 5.09.

As for `O=C(c1ccccc1)c1[nH]n(-c2ccccc2)c2c(O)n(-c3ccccc3Cl)c(=O)c1-2` [SMR000212371], the negative-log EC50 (pEC50) was less than 3.52.

Consider `COc1ccc(N=CCC(=O)c2ccc(C)cc2)cc1OC` [SMR000269732], for which the negative logarithm of the EC50 (pEC50) is less than 3.52.

Usually pEC50 stands for the negative decadic logarithm of the EC50, by convention in mol/L.

The values above are taken from BindingDB's records for doi:10.7270/Q28G8J4C (Broad Institute, 2009).
